Results taken from patent US8894927B2, “Shower sterilisation system and method of use thereof” (Omnia-Klenz Ltd., priority 2010, dated 2014).
Like-named read-outs stand apart in the source and are kept apart here.

Legend:
Legionella = settings: cited from earlier work
Mycobacteria = settings: against Mycobacteria; cited from earlier work
[1] = test system: yeast and mold counts of shower water; assay: Hadfield office shower head, Petrifilm yeast and mold count after biocide treatment; settings: 0.5% solution, 30 min contact
Legionella pneumophilia = format: cell-based
[2] = test system: aerobic counts of shower water; assay: Hadfield office shower head, Petrifilm aerobic count after biocide treatment; settings: for Mb. Analyses Aerobic: 0.5% solution, 30 min contact
Hepatatis = settings: against Hepatatis; cited from earlier work
[3] = test system: microbiological activity in shower apparatus; assay: Treatment of shower apparatus, microbiological activity / TVC; settings: solution of around 250-500 ppm
Source text: The fall in TVCs or “kill” of the micro-activity following use of the first biocidal product alone or following a combination of use of the first biocidal product and second acidic sequestering product is similar but the time before significant re-inoculation is extended when the combination of the first and second compositions are used. In areas of high water hardness, the potential for re-inoculation is much higher than in areas of low water hardness and therefore the benefit of using an acidic sequestering product in combination with the biocidal product is much higher.
The biocidial composition of the present invention results in a fall in TVC from a starting level of approximately 10^5 cfu/ml to 20-500 cfu/ml.

HIV = settings: against HIV; cited from earlier work
[4] = 555 ppm, 8 days (192 hours) since biocide first added, (1) Resting (8 days), 16 °C
[5] = 555 ppm, 8 days (192 hours) since biocide first added, (2) Shower running, 10 °C
[6] = 555 ppm, 8 days (192 hours) since biocide first added, (3) Shower running, 15 °C
[7] = 555 ppm, 8 days (192 hours) since biocide first added, (4) Shower running, 20 °C
[8] = 555 ppm, 8 days (192 hours) since biocide first added, (5) Shower running, 25 °C
[9] = 555 ppm, 8 days (192 hours) since biocide first added, (6) Shower running, 30 °C
[10] = 555 ppm, 8 days (192 hours) since biocide first added, (7) Shower running, 35 °C
[11] = 555 ppm, 8 days (192 hours) since biocide first added, (8) Shower running, 40 °C
[12] = 555 ppm, 8 days (192 hours) since biocide first added, (9) Shower running - full heat, 41 °C
[13] = 565 ppm, 24 hours after biocide addition, (1) Resting, 15 °C
[14] = 565 ppm, 24 hours after biocide addition, (2) Shower running, 10 °C
[15] = 565 ppm, 24 hours after biocide addition, (3) Shower running, 15 °C
[16] = 565 ppm, 24 hours after biocide addition, (4) Shower running, 20 °C
[17] = 565 ppm, 24 hours after biocide addition, (5) Shower running, 25 °C
[18] = 565 ppm, 24 hours after biocide addition, (6) Shower running, 30 °C
[19] = 565 ppm, 24 hours after biocide addition, (7) Shower running, 35 °C
[20] = 565 ppm, 24 hours after biocide addition, (8) Shower running, 40 °C
[21] = 565 ppm, 24 hours after biocide addition, (9) Shower running, 41 °C
[22] = 565 ppm, 48 hours after biocide addition, (1) Resting, 16 °C
[23] = 565 ppm, 48 hours after biocide addition, (2) Shower running, 10 °C
[24] = 565 ppm, 48 hours after biocide addition, (3) Shower running, 15 °C
[25] = 565 ppm, 48 hours after biocide addition, (4) Shower running, 20 °C
[26] = 565 ppm, 48 hours after biocide addition, (5) Shower running, 25 °C
[27] = 565 ppm, 48 hours after biocide addition, (6) Shower running, 30 °C
[28] = 565 ppm, 48 hours after biocide addition, (7) Shower running, 35 °C
[29] = 565 ppm, 48 hours after biocide addition, (8) Shower running, 40 °C
[30] = 565 ppm, 48 hours after biocide addition, (9) Shower running, 41 °C

CCCCCCCCCCCCN(CCCN)CCCN [Lonzabac 12.100, N-(3-aminopropyl)-N-dodecylpropane-1,3-diamine]
concentration down to which effective (Legionella): ≥ 0.05%
concentration down to which effective (Mycobacteria): ≥ 0.05%
Mb. Analyses Yeast/Mold [1, 4]: No growth
Mb. Analyses Yeast/Mold [1, 5]: No growth
Mb. Analyses Yeast/Mold [1, 6]: No growth
Mb. Analyses Yeast/Mold [1, 7]: No growth
Mb. Analyses Yeast/Mold [1, 8]: No growth
Mb. Analyses Yeast/Mold [1, 9]: 1 yeast cols/ml
Mb. Analyses Yeast/Mold [1, 10]: No growth
Mb. Analyses Yeast/Mold [1, 11]: No growth
Mb. Analyses Yeast/Mold [1, 12]: 1 yeast cols/ml
Mb. Analyses Yeast/Mold [1, 13]: No growth
Mb. Analyses Yeast/Mold [1, 14]: No growth
Mb. Analyses Yeast/Mold [1, 15]: No growth
Mb. Analyses Yeast/Mold [1, 16]: No growth
Mb. Analyses Yeast/Mold [1, 17]: No growth
Mb. Analyses Yeast/Mold [1, 18]: No growth
Mb. Analyses Yeast/Mold [1, 19]: No growth
Mb. Analyses Yeast/Mold [1, 20]: No growth
Mb. Analyses Yeast/Mold [1, 21]: No growth
Mb. Analyses Yeast/Mold [1, 22]: No growth
Mb. Analyses Yeast/Mold [1, 23]: No growth
Mb. Analyses Yeast/Mold [1, 24]: No growth
Mb. Analyses Yeast/Mold [1, 25]: No growth
Mb. Analyses Yeast/Mold [1, 26]: No growth
Mb. Analyses Yeast/Mold [1, 27]: No growth
Mb. Analyses Yeast/Mold [1, 28]: No growth
Mb. Analyses Yeast/Mold [1, 29]: No growth
Mb. Analyses Yeast/Mold [1, 30]: No growth
Biocidal effect (Legionella pneumophilia; 100 ppm biocidal active, contact time 5 minutes): Biocidal
Biocidal effect (Legionella pneumophilia; 100 ppm biocidal active, contact time 10 minutes): Biocidal
Biocidal effect (Legionella pneumophilia; 100 ppm biocidal active, contact time 15 minutes): Biocidal
Biocidal effect (Legionella pneumophilia; 100 ppm biocidal active, contact time 30 minutes): Biocidal
Biocidal effect (Legionella pneumophilia; 200 ppm biocidal active, contact time 5 minutes): Biocidal
Biocidal effect (Legionella pneumophilia; 200 ppm biocidal active, contact time 10 minutes): Biocidal
Biocidal effect (Legionella pneumophilia; 200 ppm biocidal active, contact time 15 minutes): Biocidal
Biocidal effect (Legionella pneumophilia; 200 ppm biocidal active, contact time 30 minutes): Biocidal
Biocidal effect (Legionella pneumophilia; 300 ppm biocidal active, contact time 5 minutes): Biocidal
Biocidal effect (Legionella pneumophilia; 300 ppm biocidal active, contact time 10 minutes): Biocidal
Biocidal effect (Legionella pneumophilia; 300 ppm biocidal active, contact time 15 minutes): Biocidal
Biocidal effect (Legionella pneumophilia; 300 ppm biocidal active, contact time 30 minutes): Biocidal
Biocidal effect (Legionella pneumophilia; 500 ppm biocidal active, contact time 5 minutes): Biocidal
Biocidal effect (Legionella pneumophilia; 500 ppm biocidal active, contact time 10 minutes): Biocidal
Biocidal effect (Legionella pneumophilia; 500 ppm biocidal active, contact time 15 minutes): Biocidal
Biocidal effect (Legionella pneumophilia; 500 ppm biocidal active, contact time 30 minutes): Biocidal
biocidal effect, summary of Table A (Legionella pneumophilia; all concentrations (100-500 ppm), contact time as short as 5 minutes): biocidal to Legionella at all concentrations
Mb. Analyses Aerobic [2, 4]: 10^5 cols/ml
Mb. Analyses Aerobic [2, 5]: 1 cols/ml
Mb. Analyses Aerobic [2, 6]: 3 cols/ml
Mb. Analyses Aerobic [2, 7]: No growth
Mb. Analyses Aerobic [2, 8]: No growth
Mb. Analyses Aerobic [2, 9]: 9 cols/ml
Mb. Analyses Aerobic [2, 10]: 1 cols/ml
Mb. Analyses Aerobic [2, 11]: No growth
Mb. Analyses Aerobic [2, 12]: 2 cols/ml
Mb. Analyses Aerobic [2, 13]: 60 cols/ml
Mb. Analyses Aerobic [2, 14]: No growth
Mb. Analyses Aerobic [2, 15]: No growth
Mb. Analyses Aerobic [2, 16]: No growth
Mb. Analyses Aerobic [2, 17]: No growth
Mb. Analyses Aerobic [2, 18]: 1 cols/ml
Mb. Analyses Aerobic [2, 19]: No growth
Mb. Analyses Aerobic [2, 20]: 2 cols/ml
Mb. Analyses Aerobic [2, 21]: No growth
Mb. Analyses Aerobic [2, 22]: 520 cols/ml
Mb. Analyses Aerobic [2, 23]: 8 cols/ml
Mb. Analyses Aerobic [2, 24]: 2 cols/ml
Mb. Analyses Aerobic [2, 25]: No growth
Mb. Analyses Aerobic [2, 26]: No growth
Mb. Analyses Aerobic [2, 27]: No growth
Mb. Analyses Aerobic [2, 28]: No growth
Mb. Analyses Aerobic [2, 29]: 1 cols/ml
Mb. Analyses Aerobic [2, 30]: No growth
microbiological activity 8 days after treatment (Table 2) ([2]; before inclusion of wetting agents and other functional components): re-established itself
concentration down to which effective (Hepatatis): ≥ 0.05%
sterilisation of shower compared with 5 parts per million of BCDMH (L8 recommendations) [3]: more effective sterilisation was achieved for a longer period
concentration down to which effective (HIV): ≥ 0.05%
